Reference: patent US9670227B2, “Thienopyrimidine derivatives, a process for their preparation and pharmaceutical compositions containing them” (LES LABORATOIRES SERVIER, priority 2013, dated 2017)
Like-named read-outs stand apart in the source and are kept apart here.

How the values were obtained:
Mcl-1 protein = Mcl-1 protein (UniProtKB primary accession number: Q07820) (Homo sapiens, UniProt Q07820); experiment: Inhibition of Mcl-1 by fluorescence polarisation, Method 1; type: binding; details: read-out: IC50 (M) Mcl-1 FP
Chain of Mcl-1 protein (Q07820 whole entry): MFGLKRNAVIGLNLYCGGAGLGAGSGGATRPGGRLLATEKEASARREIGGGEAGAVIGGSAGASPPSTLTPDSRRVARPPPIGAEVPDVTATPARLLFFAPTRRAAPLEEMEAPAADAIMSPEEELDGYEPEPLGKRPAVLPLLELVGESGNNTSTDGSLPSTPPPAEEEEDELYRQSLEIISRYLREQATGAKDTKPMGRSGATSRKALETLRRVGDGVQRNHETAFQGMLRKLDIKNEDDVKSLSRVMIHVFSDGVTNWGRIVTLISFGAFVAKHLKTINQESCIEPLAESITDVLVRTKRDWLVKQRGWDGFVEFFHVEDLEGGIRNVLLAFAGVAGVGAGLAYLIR
How it was run: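 Fluorescence polarisation competition with an 11-point compound dilution series (final DMSO 5%). Mcl-1 protein at 5 nM and fluorescein-labelled ligand at 1 nM (final) in 10 mM HEPES, 150 mM NaCl, 0.05% Tween 20, pH 7.4.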

[1] = system: H929 multiple myeloma tumour line; experiment: In vitro cytotoxicity, Microculture Tetrazolium Assay; type: cell-based; details: Homo sapiens, NCI-H929, 48 h, H929 cells, 48 hours exposure, MTT; read-out: IC50 (μM) MTT H929
Procedure: The cytotoxicity studies were carried out on the H929 multiple myeloma tumour line.
The cells are distributed onto microplates and exposed to the test compounds for 48 hours.

[2] = fluorescence polarisation test, Method 2 values are underlined in the patent (underlining not visible here)
[3] = fluorescence polarisation, Method 1, or Method 2

| SMILES | IC50 (Mcl-1 protein; [2]) [M] | IC50 [1] [µM] | IC50 (Mcl-1 protein; [3]) [M] |
| --- | --- | --- | --- |
| Cc1c(-c2c(-c3ccc(F)o3)sc3ncnc(OC(Cc4ccccc4OCc4cc(C(F)(F)F)ccn4)C(=O)O)c23)ccc(OCCN2CCN(C)CC2)c1Cl [Example 159, (2R)-2-{[(5Sa)-5-{3-chloro-2-methyl-4-[2-(4-methylpiperazin-1-yl)ethoxy]phenyl}-6-(5-fluorofuran-2-yl)thieno[2,3-d]pyrimidin-4-yl]oxy}-3-(2-{[4-(trifluoromethyl)pyridin-2-yl]methoxy}phenyl)propanoic acid] | 9.8e-09 | 0.246 |  |
| CCc1sc2ncnc(OC(Cc3ccccc3)C(=O)O)c2c1-c1cc([N+](=O)[O-])c(OCCN2CCN(C)CC2)c(Cl)c1C [Example 435, (2R)-2-[((5Sa)-5-{3-chloro-2-methyl-4-[2-(4-methylpiperazin-1-yl)ethoxy]-5-nitrophenyl}-6-ethylthieno[2,3-d]pyrimidin-4-yl)oxy]-3-phenylpropanoic acid] |  | 11.1 | 3.2e-07 |
| COc1ccc(Cl)cc1CC(Oc1ncnc2sc(-c3ccc(Cl)o3)c(-c3ccc(OCCN4CCN(C)CC4)c(Cl)c3C)c12)C(=O)O [Example 714, (2R)-2-{[6-(5-chlorofuran-2-yl)-(5Sa)-5-{3-chloro-2-methyl-4-[2-(4-methylpiperazin-1-yl)ethoxy]phenyl}thieno[2,3-d]pyrimidin-4-yl]oxy}-3-(5-chloro-2-methoxyphenyl)propanoic acid] |  | 0.188 | 3.4e-08 |
| CCc1sc2ncnc(OC(Cc3ccccc3)C(=O)O)c2c1-c1cc(CN2CCN(C)CC2)c(OC)c(Cl)c1C [Example 434, (2R)-2-[((5Sa)-5-{3-chloro-4-methoxy-2-methyl-5-[(4-methylpiperazin-1-yl)methyl]phenyl}-6-ethylthieno[2,3-d]pyrimidin-4-yl)oxy]-3-phenylpropanoic acid] |  | 11.3 | 1.7e-07 |
| COc1cnccc1-c1nccc(COc2ccccc2CC(Oc2ncnc3sc(-c4ccc(F)cc4)c(-c4ccc(OCCN5CCN(C)CC5)c(Cl)c4C)c23)C(=O)O)n1 [Example 730, (2R)-2-{[(5Sa)-5-{3-chloro-2-methyl-4-[2-(4-methylpiperazin-1-yl)ethoxy]phenyl}-6-(4-fluorophenyl)thieno[2,3-d]pyrimidin-4-yl]oxy}-3-(2-{[2-(3-methoxypyridin-4-yl)pyrimidin-4-yl]methoxy}phenyl)propanoic acid] |  | 0.005 | 9.48e-10 |
| CCCCn1nccc1COc1ccccc1CC(Oc1ncnc2sc(-c3ccc(Cl)nc3)c(-c3ccc(OCCN4CCN(C)CC4)c(Cl)c3C)c12)C(=O)O [Example 606, (2R)-3-{2-[(1-butyl-1H-pyrazol-5-yl)methoxy]phenyl}-2-{[(5Sa)-5-{3-chloro-2-methyl-4-[2-(4-methylpiperazin-1-yl)ethoxy]phenyl}-6-(6-chloropyridin-3-yl)thieno[2,3-d]pyrimidin-4-yl]oxy}propanoic acid] |  | 0.064 | 4e-09 |
| COc1ccccc1CC(Oc1ncnc2sc(-c3cc(F)c(F)c(F)c3)c(-c3ccc(OCCN4CCN(C)CC4)c(Cl)c3C)c12)C(=O)O [Example 523, (2R)-2-{[(5Sa)-5-{3-chloro-2-methyl-4-[2-(4-methylpiperazin-1-yl)ethoxy]phenyl}-6-(3,4,5-trifluorophenyl)thieno[2,3-d]pyrimidin-4-yl]oxy}-3-(2-methoxyphenyl)propanoic acid] |  | 0.532 | 1.8e-09 |
| Cc1c(-c2c(-c3ccco3)sc3ncnc(OC(Cc4ccccc4OCc4cc(-c5ccccc5)nn4C)C(=O)O)c23)ccc(OCCN2CCN(C)CC2)c1Cl [Example 227, (2R)-2-{[(5Sa)-5-{3-chloro-2-methyl-4-[2-(4-methylpiperazin-1-yl)ethoxy]phenyl}-6-(furan-2-yl)thieno[2,3-d]pyrimidin-4-yl]oxy}-3-{2-[(1-methyl-3-phenyl-1H-pyrazol-5-yl)methoxy]phenyl}propanoic acid] | 2e-08 | 0.192 |  |
